These results are taken from patent publication US20030229113A1, “Keratinocyte growth inhibitors and hydroxamic acid derivatives” (priority 2003, published 2003).

The structures appear in SMILES notation. Read-outs that look alike come from different tables or passages of the source.

As usually defined, the IC50 is the concentration needed to halve the response being measured.

The subject of assay [1] is epidermal hyperplasia induced by TPA. As to the kind of experiment: TPA-induced epidermal hyperplasia on dorsal skin of mice. In kind it is in vivo, male BALB/c mice. Particulars: ED50; topical in acetone at 1 minute, 24 and 48 hours after TPA; epidermal thickness 72 hours after TPA. On the procedure:
After backs of male BALB/c mice were shaved, 20 micro 1 of TPA-acetone solution (50 μM) was applied to the dorsal skin surface in an area of ca. 1 cm^2. A volume of 20 micro 1 of test compound-acetone solution was applied to the same area a minute, 24 hours and 48 hours after TPA application (the treated group). In the non-treated group, acetone was applied instead of the test compound. In the control group, acetone was applied instead of TPA and the test compound. The mice were sacrificed, and the skin tissues treated with TPA or the test compound were excised 72 hours after TPA application. Then the tissues were fixed with 10% formalin and embedded in paraffin according to the conventional method. The vertical sections including the center of the TPA- or the test compound-treated area were prepared and they were stained by hematoxylin-eosin. The epidermal thickness was measured using an ocular microscope. The amount of the test compound required for achieving 50% inhibition against the mean epidermal thickness of the non-treated group (ED50) was calculated, wherein the mean epidermal thickness of the non-treated group was 100% and that of the control group was 0%.

The test system of assay [2] is solubilizing enzyme of HB-EGF. The experiment in a line: Inhibition of TPA-stimulated release of HB-EGF from HT-1080 transfectant expressing HB-EGF/alkaline phosphatase fusion protein. It is filed as cell-based, human. As to conditions: HT-1080 HB-EGF-AP transfectant, TPA 60 nM for 60 min, AP activity in conditioned medium (OD405). On the procedure: Human fibrosarcoma HT-1080 stable transfectant expressing fusion protein of HB-EGF and human placental alkaline phosphatase (AP) were used for following experiments.
The cultured transfectant was treated with Trypsin-EDTA solution, and suspended in Minimum Essential Medium (without phenol red; supplemented with 10% heat-inactivated fetal calf serum; MEM) at the concentration of 1×10^5 cells/ml. Each 0.2 ml of the cell suspension was dispensed into individual wells of 96 well microplate, and incubated overnight in the CO2 incubator (37° C.). After the incubation, the conditioned medium was removed, and the wells were washed once with 0.2 ml of phosphate buffered saline. The cells were treated with 0.1 ml of compound solution [compound solutions in dimethylsulfoxide (DMSO) were diluted 100 times with MEM] for 30 min at 37° C. Then the compound solutions were removed, and cells were treated with 0.2 ml of TPA solution (120 μM) of stock solution was diluted to 60 nM with MEM) containing same concentration of the compound for 60 min at 37° C. The cells treated same procedure without compound were used as control.
After these treatments, each 0.1 ml of conditioned medium was transferred to individual wells of new 96 well microplate and incubated at 65° C. for 10 min to inactivate endogenous alkaline phosphatase. One hundred microliter of substrate solution (1 mg/ml of p-nitrophenyl phosphate in 0.01% magnesium chloride/1 M diethanolamine) for AP was added to each well and incubated for 120 min at room temperature in the dark. The OD405 of each well was measured with microplate reader. The IC50 values of the compounds were calculated from the concentration-inhibition curves.

In the case of `CNC(=O)C(Cc1cccc2ccccc12)NC(=O)C(CC(=O)NO)CC(C)C` [the compound d, [4-(N-hydroxyamino)-2 (R)-isobutylsuccinyl]-L-3-(1-naphtyl)-alanine-N-methylamide, reference compound], the “Amount of test compound required for 50% suppression of epidermal hyperplasia” value in assay [1] was 40 10^−6 g/cm^2. The IC50 in assay [2] (read-out: IC50) is 1700 nM.
In the case of `CCOCCOc1ccc(S(=O)(=O)N2Cc3nccnc3CC2C(=O)NO)cc1` (single isomer, unassigned; (+)) [the compound(27), (+)-N-Hydroxy-6-[4-(2-ethoxyethoxy)benzenesulfonyl]-5,6,7,8-tetrahydropyrido[3,4-b]pyrazine-7-carboxamide], the “Amount of test compound required for 50% suppression of epidermal hyperplasia” value in assay [1] is reported as 58 10^−6 g/cm^2. The IC50 in assay [2] (read-out: IC50) was determined as 36 nM.
The like results for `O=C(NO)C1Cc2nccnc2CN1S(=O)(=O)c1ccc(F)cc1` (single isomer, unassigned; (+)) [the compound(37), (+)-N-Hydroxy-6-(4-fluorobenzenesulfonyl)-5,6,7,8-tetrahydropyrido[3,4-b]pyrazine-7-carboxamide] were, in that order, 120 10^−6 g/cm^2 and 810 nM.
Turning to `O=C(NO)C1Cc2nccnc2CN1S(=O)(=O)c1cccs1` (single isomer, unassigned; (+)) [the compound(46), (+)-N-Hydroxy-6-[(thiophen-2-yl)sulfonyl]-5,6,7,8-tetrahydropyrido[3,4-b]pyrazine-7-carboxamide], in assay [1], the “Amount of test compound required for 50% suppression of epidermal hyperplasia” value was 69 10^−6 g/cm^2. The IC50 in assay [2] worked out at 960 nM.
For the molecule `O=C(NO)C1Cc2nccnc2CN1S(=O)(=O)c1ccc(-c2ccccc2)cc1` (single isomer, unassigned; (+)) [the compound(40), (+)-N-Hydroxy-6-(biphenyl-4-sulfonyl)-5,6,7,8-tetrahydropyrido[3,4-b]pyrazine-7-carboxamide], the “Amount of test compound required for 50% suppression of epidermal hyperplasia” value in assay [1] is 20 10^−6 g/cm^2. The IC50 in assay [2] (read-out: IC50) is 1500 nM.
For `O=C(NO)C1Cc2nccnc2CN1S(=O)(=O)c1ccc(OC(F)(F)F)cc1` (single isomer, unassigned; (+)) [the compound(17), (+)-N-Hydroxy-6-(4-trifluoromethoxybenzenesulfonyl)-5,6,7,8-tetrahydropyrido[3,4-b]pyrazine-7-carboxamide], the “Amount of test compound required for 50% suppression of epidermal hyperplasia” value in assay [1] is given as 48 10^−6 g/cm^2. Also, the concentration for half-maximal inhibition (IC50) in assay [2] (read-out: IC50) is 330 nM.
As for `CCOCCCOc1ccc(S(=O)(=O)N2Cc3nccnc3CC2C(=O)NO)cc1` (single isomer, unassigned; (+)) [the compound(23), (+)-N-Hydroxy-6-[4-(3-ethoxypropoxy)benzenesulfonyl]-5,6,7,8-tetrahydropyrido[3,4-b]pyrazine-7-carboxamide], the IC50 in assay [2] (read-out: IC50) amounted to 92 nM.
Consider `CCOC(=O)COc1ccc(S(=O)(=O)N2Cc3nccnc3CC2C(=O)NO)cc1` (single isomer, unassigned; (+)) [the compound(30), (+)-N-Hydroxy-6-(4-ethoxycarbonylmethoxy-benzenesulfonyl)-5,6,7,8-tetrahydropyrido[3,4-b]pyrazine-7-carboxamide], for which the IC50 in assay [2] (read-out: IC50) worked out at 1000 nM.
As for `Cc1ccc(S(=O)(=O)N2Cc3nccnc3CC2C(=O)NO)cc1` (single isomer, unassigned; (+)) [the compound(31), (+)-N-Hydroxy-6-(4-methylbenzenesulfonyl)-5,6,7,8-tetrahydropyrido[3,4-b]pyrazine-7-carboxamide], the IC50 in assay [2] (read-out: IC50) was 2700 nM.
Still for that read-out and setting: to `Nc1ccc(Oc2ccc(S(=O)(=O)N3Cc4nccnc4CC3C(=O)NO)cc2)cc1` (racemic) [the compound(6), (±)-N-Hydroxy-6-[4-(4-aminophenoxy)benzenesulfonyl]-5,6,7,8-tetrahydropyrido[3,4-b]pyrazine-7-carboxamide] belongs 1100 nM.
Take `CCOCCOc1ccc(S(=O)(=O)N2Cc3nccnc3CC2C(=O)NO)cc1` (racemic) [the compound(7), (±)-N-Hydroxy-6-[4-(2-ethoxyethoxy)benzenesulfonyl]-5,6,7,8-tetrahydropyrido[3,4-b]pyrazine-7-carboxamide]: the IC50 in assay [2] (read-out: IC50) was 260 nM.
For the molecule `CNC(=O)[C@@H](NC(=O)[C@H](CC(C)C)C(CN1CCc2ccccc2C1)C(=O)NO)c1ccccc1` (stereo partly drawn) [the compound c, [4-(N-hydroxyamino)-2 (R)-isobutyl-3-(1,2,3,4-tetrahydro-isoquinolylmethyl)succinyl]-L-phenylglycine —N-methylamide, reference compound], the “Amount of test compound required for 50% suppression of epidermal hyperplasia” value in assay [1] is 190 10^−6 g/cm^2. The IC50 in assay [2] (read-out: IC50) worked out at 54 nM.
Take `CCCCOCCCOc1ccc(S(=O)(=O)N2Cc3nccnc3CC2C(=O)NO)cc1` (single isomer, unassigned; (+)) [the compound(25), (+)-N-Hydroxy-6-[4-(3-buthoxypropoxy)benzenesulfonyl]-5,6,7,8-tetrahydropyrido[3,4-b]pyrazine-7-carboxamide]: the IC50 in assay [2] (read-out: IC50) is 260 nM.
Take `O=C(NO)C1Cc2nccnc2CN1S(=O)(=O)c1ccc(O)cc1` (single isomer, unassigned; (+)) [the compound(41), (+)-N-Hydroxy-6-(4-hydroxybenzenesulfonyl)-5,6,7,8-tetrahydropyrido[3,4-b]pyrazine-7-carboxamide]: the IC50 in assay [2] (read-out: IC50) was 300 nM.
Regarding `N#CCCOc1ccc(S(=O)(=O)N2Cc3nccnc3CC2C(=O)NO)cc1` (single isomer, unassigned; (+)) [the compound(29), (+)-N-Hydroxy-6-[4-(2-cyanoethoxy)benzenesulfonyl]-5,6,7,8-tetrahydropyrido[3,4-b]pyrazine-7-carboxamide], in assay [2] (read-out: IC50), the IC50 was 200 nM.
Consider `CC(C)(C)C(=O)Oc1ccc(S(=O)(=O)N2Cc3nccnc3CC2C(=O)NO)cc1` (single isomer, unassigned; (+)) [the compound(28), (+)-N-Hydroxy-6-(4-pivaloyloxybenzenesulfonyl)-5,6,7,8-tetrahydropyrido[3,4-b]pyrazine-7-carboxamide], for which, in assay [2] (read-out: IC50), the IC50 came to 2800 nM.
Same read-out and setting: next, `C=Cc1ccc(S(=O)(=O)N2Cc3nccnc3CC2C(=O)NO)cc1` (single isomer, unassigned; (+)) [the compound(44), (+)-N-Hydroxy-6-(4-vinylbenzenesulfonyl)-5,6,7,8-tetrahydropyrido[3,4-b]pyrazine-7-carboxamide]: 1100 nM.
For the molecule `O=C(NO)C1Cc2nccnc2CN1S(=O)(=O)c1ccc(Oc2cnccn2)cc1` (racemic) [the compound(5), (±)-N-Hydroxy-6-[4-(pyrazine-2-yloxy)benzenesulfonyl]-5,6,7,8-tetrahydropyrido[3,4-b]pyrazine-7-carboxamide], in assay [2], 900 nM corresponded to half-maximal inhibition (IC50).
As to `O=C(NO)C1Cc2nccnc2CN1S(=O)(=O)c1ccccc1` (single isomer, unassigned; (+)) [the compound(36), (+)-N-Hydroxy-6-benzenesulfonyl-5,6,7,8-tetrahydropyrido[3,4-b]pyrazine-7-carboxamide], the “Amount of test compound required for 50% suppression of epidermal hyperplasia” value in assay [1] was 130 10^−6 g/cm^2. Also, the IC50 in assay [2] (read-out: IC50) is 510 nM.
Regarding `CC(=O)OCCOc1ccc(S(=O)(=O)N2Cc3nccnc3CC2C(=O)NO)cc1` (single isomer, unassigned; (+)) [the compound(33), (+)-N-Hydroxy-6-[4-(2-acetoxyethoxy)benzenesulfonyl]-5,6,7,8-tetrahydropyrido[3,4-b]pyrazine-7-carboxamide], the 50% inhibitory concentration (IC50) in assay [2] (read-out: IC50) was determined as 400 nM.
